Results from ChEMBL document CHEMBL1201862, “PubChem BioAssay data set” (2004).
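A five-concentration, 48-hour dose response in 96-well plates underlies each endpoint, interpolated linearly between surrounding concentrations. GI50 is the concentration that inhibits growth by half.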 The source made the active and inactive calls. Rule as the data show it: active = GI50 up to about 1.1 µM and inactive = higher.

How the values were obtained:
Experiment in all cases: NCI anticancer screen, dose series, 48 h
CAKI-1 = test system: CAKI-1
HOP-92 = test system: HOP-92
IGROV-1 = test system: IGROV-1
MDA-N = test system: MDA-N
MCF7 = test system: MCF7
CCRF-CEM = test system: CCRF-CEM
HOP-62 = test system: HOP-62
NCI-H226 = test system: NCI-H226
ACHN = test system: ACHN
OVCAR-4 = test system: OVCAR-4
HCC 2998 = test system: HCC 2998
NCI/ADR-RES = test system: NCI/ADR-RES
SR = test system: SR
SW-620 = test system: SW-620
RXF 393 = test system: RXF 393
OVCAR-3 = test system: OVCAR-3
SK-MEL-5 = test system: SK-MEL-5
SNB-75 = test system: SNB-75
HCT-116 = test system: HCT-116
RPMI-8226 = test system: RPMI-8226
BT-549 = test system: BT-549
NCI-H522 = test system: NCI-H522
SF-295 = test system: SF-295
SF-539 = test system: SF-539
M14 = test system: M14
COLO 205 = test system: COLO 205
PC-3 = test system: PC-3
HCT-15 = test system: HCT-15
EKVX = test system: EKVX
NCI-H460 = test system: NCI-H460
KM12 = test system: KM12
786-0 = test system: 786-0
SK-MEL-28 = test system: SK-MEL-28
K562 = test system: K562
TK-10 = test system: TK-10
NCI-H23 = test system: NCI-H23
HL-60 = test system: HL-60
SN12C = test system: SN12C
Hs-578T = test system: Hs-578T
HT-29 = test system: HT-29
SK-MEL-2 = test system: SK-MEL-2
UACC-62 = test system: UACC-62
DU-145 = test system: DU-145
A549 = test system: A549
MDA-MB-435 = test system: MDA-MB-435
SNB-19 = test system: SNB-19
SF-268 = test system: SF-268
MDA-MB-231 = test system: MDA-MB-231
MOLT-4 = test system: MOLT-4
SK-OV-3 = test system: SK-OV-3
LOX IMVI = test system: LOX IMVI
U-251 = test system: U-251
A498 = test system: A498
UACC-257 = test system: UACC-257
T47D = test system: T47D
OVCAR-8 = test system: OVCAR-8
OVCAR-5 = test system: OVCAR-5
UO-31 = test system: UO-31
Malme-3M = test system: Malme-3M

Cc1ccnc2nc(-c3cccc(Cl)c3)cc(O)c12
GI50 (CAKI-1): 1.33 µM (inactive) | GI50 (HOP-92): 2.43 µM (inactive) | GI50 (IGROV-1): 0.185 µM (active) | GI50 (MDA-N): 0.0108 µM (active) | GI50 (MCF7): 0.36 µM (active) | GI50 (CCRF-CEM): 0.0553 µM (active) | GI50 (HOP-62): 0.0708 µM (active) | GI50 (NCI-H226): 3.4 µM (inactive) | GI50 (ACHN): 1.34 µM (inactive) | GI50 (OVCAR-4): > 91.4 µM (inactive) | GI50 (HCC 2998): 0.224 µM (active) | GI50 (NCI/ADR-RES): 0.1 µM (active) | GI50 (SR): 0.0325 µM (active) | GI50 (SW-620): 0.0524 µM (active) | GI50 (RXF 393): 2.77 µM (inactive) | GI50 (OVCAR-3): 0.0279 µM (active) | GI50 (SK-MEL-5): 0.038 µM (active) | GI50 (SNB-75): > 10 µM (inactive) | GI50 (HCT-116): 0.0269 µM (active) | GI50 (RPMI-8226): 0.0356 µM (active) | GI50 (BT-549): 1.65 µM (inactive) | GI50 (NCI-H522): 0.0459 µM (active) | GI50 (SF-295): 0.0426 µM (active) | GI50 (SF-539): 0.0906 µM (active) | GI50 (M14): 0.0822 µM (active) | GI50 (COLO 205): 0.0598 µM (active) | GI50 (PC-3): 0.0206 µM (active) | GI50 (HCT-15): 0.0407 µM | GI50 (EKVX): > 100 µM (inactive) | GI50 (NCI-H460): 0.0386 µM (active) | GI50 (KM12): 0.0682 µM (active) | GI50 (786-0): 0.08 µM (active) | GI50 (SK-MEL-28): 1.9 µM (inactive) | GI50 (K562): < 0.0143 µM (active) | GI50 (TK-10): > 100 µM (inactive) | GI50 (NCI-H23): 0.826 µM (active) | GI50 (HL-60): 0.0115 µM (active) | GI50 (SN12C): 0.139 µM (active) | GI50 (Hs-578T): 0.44 µM (active) | GI50 (HT-29): 0.0401 µM (active) | GI50 (SK-MEL-2): 0.0675 µM (active) | GI50 (UACC-62): 0.0474 µM (active) | GI50 (DU-145): 0.495 µM (active) | GI50 (A549): 0.0748 µM (active) | GI50 (MDA-MB-435): < 0.01 µM (active) | GI50 (SNB-19): 0.132 µM (active) | GI50 (SF-268): 20.7 µM (inactive) | GI50 (MDA-MB-231): 0.108 µM (active) | GI50 (MOLT-4): 0.0658 µM (active) | GI50 (SK-OV-3): 0.267 µM (active) | GI50 (LOX IMVI): 0.155 µM (active) | GI50 (U-251): 0.0596 µM (active) | GI50 (A498): 0.234 µM (active) | GI50 (UACC-257): > 100 µM (inactive) | GI50 (T47D): > 100 µM (inactive) | GI50 (OVCAR-8): 0.308 µM (active)

O=C(NO)NCCCl
GI50 (CAKI-1): > 100 µM (inactive) | GI50 (HOP-92): > 100 µM (inactive) | GI50 (IGROV-1): > 100 µM (inactive) | GI50 (MDA-N): > 100 µM (inactive) | GI50 (MCF7): > 100 µM (inactive) | GI50 (CCRF-CEM): > 100 µM (inactive) | GI50 (HOP-62): > 100 µM (inactive) | GI50 (NCI-H226): > 100 µM (inactive) | GI50 (ACHN): > 100 µM (inactive) | GI50 (OVCAR-4): > 100 µM (inactive) | GI50 (HCC 2998): > 100 µM (inactive) | GI50 (NCI/ADR-RES): > 100 µM (inactive) | GI50 (SR): > 100 µM (inactive) | GI50 (SW-620): > 100 µM (inactive) | GI50 (OVCAR-5): > 100 µM (inactive) | GI50 (RXF 393): > 100 µM (inactive) | GI50 (OVCAR-3): > 100 µM (inactive) | GI50 (SK-MEL-5): > 100 µM (inactive) | GI50 (SNB-75): > 100 µM (inactive) | GI50 (HCT-116): > 100 µM (inactive) | GI50 (RPMI-8226): > 100 µM (inactive) | GI50 (BT-549): > 100 µM (inactive) | GI50 (NCI-H522): > 100 µM (inactive) | GI50 (SF-295): > 100 µM (inactive) | GI50 (SF-539): > 100 µM (inactive) | GI50 (M14): > 100 µM (inactive) | GI50 (COLO 205): > 100 µM (inactive) | GI50 (PC-3): > 100 µM (inactive) | GI50 (HCT-15): > 100 µM | GI50 (EKVX): > 100 µM (inactive) | GI50 (NCI-H460): > 100 µM (inactive) | GI50 (KM12): > 100 µM (inactive) | GI50 (786-0): > 100 µM (inactive) | GI50 (K562): > 100 µM (inactive) | GI50 (TK-10): > 100 µM (inactive) | GI50 (NCI-H23): > 100 µM (inactive) | GI50 (HL-60): > 100 µM (inactive) | GI50 (SN12C): > 100 µM (inactive) | GI50 (Hs-578T): > 100 µM (inactive) | GI50 (HT-29): > 100 µM (inactive) | GI50 (SK-MEL-2): > 100 µM (inactive) | GI50 (UACC-62): > 100 µM (inactive) | GI50 (DU-145): > 100 µM (inactive) | GI50 (A549): > 100 µM (inactive) | GI50 (MDA-MB-435): > 100 µM (inactive) | GI50 (UO-31): > 100 µM (inactive) | GI50 (SNB-19): > 100 µM (inactive) | GI50 (SF-268): > 100 µM (inactive) | GI50 (MDA-MB-231): > 100 µM (inactive) | GI50 (MOLT-4): > 100 µM (inactive) | GI50 (SK-OV-3): > 100 µM (inactive) | GI50 (LOX IMVI): > 100 µM (inactive) | GI50 (Malme-3M): > 100 µM (inactive) | GI50 (U-251): > 100 µM (inactive) | GI50 (A498): 49.5 µM (inactive) | GI50 (UACC-257): > 100 µM (inactive) | GI50 (T47D): > 100 µM (inactive) | GI50 (OVCAR-8): > 100 µM (inactive)
